The subject of experiment [1] is B16. Kind of experiment: In vitro cytotoxicity against B16 tumor cell lines. The format is functional, cell-based. Conditions: Mus musculus.
The subject of experiment [2] is P388. Kind of experiment: In vitro cytotoxicity against P388 tumor cell lines. It counts as functional, cell-based. Conditions: Mus musculus.
The next experiment has as its system SNU-16. Kind of experiment: In vitro cytotoxicity against SNU16 tumor cell lines. It counts as functional, cell-based. Conditions: Homo sapiens.
Experiment [3] relates to B16. The experiment is described as follows: In vivo antitumor activity was determined against B16 tumor cell lines in mice at dose of 0.03125 mg/kg administered intraperitoneally. It counts as functional, Mus musculus. The conditions noted are these: route intraperitoneal.
Experiment [4] concerns B16. The experiment is described as follows: In vivo antitumor activity was determined against B16 tumor cell lines in mice at dose of 0.0625 mg/kg administered intraperitoneally. (p<0.05). It counts as functional, Mus musculus. Conditions: route intraperitoneal.
The subject of experiment [5] is B16. The experiment is described as follows: In vivo antitumor activity was determined against B16 tumor cell lines in mice at dose of 0.25 mg/kg administered intraperitoneally. (p<0.05). Conditions: route intraperitoneal. The format is functional, Mus musculus.
The subject of experiment [6] is B16. Kind of experiment: In vivo antitumor activity was determined against B16 tumor cell lines in mice at dose of 0.125 mg/kg administered intraperitoneally. (p<0.05). It counts as functional, Mus musculus. The conditions noted are these: route intraperitoneal.
The subject of experiment [7] is B16. The experiment is described as follows: In vivo antitumor activity was determined against B16 tumor cell lines in mice at dose of 1 mg/kg administered intraperitoneally. (p<0.05). The format is functional, Mus musculus. The conditions noted are these: route intraperitoneal.
In experiment [8] the test system is P388. The experiment is described as follows: In vivo antitumor activity was determined against P388 tumor cell lines in mice at dose of 0.03125 mg/kg administered intraperitoneally. The format is functional, Mus musculus. Conditions: route intraperitoneal.
In experiment [9] the test system is P388. The experiment is described as follows: In vivo antitumor activity was determined against P388 tumor cell lines in mice at dose of 0.0625 mg/kg administered intraperitoneally. It counts as functional, Mus musculus. Conditions: route intraperitoneal.
Experiment [10] relates to P388. The experiment is described as follows: In vivo antitumor activity was determined against P388 tumor cell lines in mice at dose of 0.125 mg/kg administered intraperitoneally. (p<0.05). It counts as functional, Mus musculus. Conditions: route intraperitoneal.
Experiment [11] deals with P388. Kind of experiment: In vivo antitumor activity was determined against P388 tumor cell lines in mice at dose of 0.25 mg/kg administered intraperitoneally. (p<0.05). It counts as functional, Mus musculus. Conditions: route intraperitoneal.
Experiment [12] concerns P388. Kind of experiment: In vivo antitumor activity was determined against P388 tumor cell lines in mice at dose of 1 mg/kg administered intraperitoneally (p<0.05). It counts as functional, Mus musculus. Conditions: route intraperitoneal.
Experiment [13] relates to B16. Kind of experiment: In vivo antitumor activity was determined against B16 tumor cell lines in mice at dose of 1 mg/kg administered intraperitoneally. It counts as functional, Mus musculus. The conditions noted are these: route intraperitoneal.
Experiment [14] has as its system P388. The experiment is described as follows: In vivo antitumor activity was determined against P388 tumor cell lines in mice at dose of 1 mg/kg administered intraperitoneally. The format is functional, Mus musculus. The conditions noted are these: route intraperitoneal.
The subject of experiment [15] is P388. Kind of experiment: In vivo antitumor activity was determined against P388 tumor cell lines in mice at dose of 0.125 mg/kg administered intraperitoneally. It counts as functional, Mus musculus. Conditions: route intraperitoneal.
Experiment [16] concerns P388. Kind of experiment: In vivo antitumor activity was determined against P388 tumor cell lines in mice at dose of 0.25 mg/kg administered intraperitoneally. The format is functional, Mus musculus. Conditions: route intraperitoneal.

Values after ≈ are worked out from the molar mass of the structure shown.

Take `CSC1[C@H]2C(=O)N(C)[C@@H](C(C)C)C(=O)OC[C@@H](NC(=O)c3cnc4ccccc4n3)C(=O)N[C@@H](C)C(=O)N(C)[C@@H](C[S+]1C)C(=O)N(C)[C@@H](C(C)C)C(=O)OC[C@@H](NC(=O)c1cnc3ccccc3n1)C(=O)N[C@@H](C)C(=O)N2C.[Cl-]` (some centres undefined) [listing 1 of 2 here]: the half-maximal inhibitory concentration (IC50) (in general, the concentration at which inhibition is half-maximal) stood at 0.09 ng/mL in the experiment on B16 [1], 0.0081 ng/mL in the experiment on P388 [2] and 0.0049 ng/mL in the experiment on SNU-16.
As to `CSC1[C@H]2C(=O)N(C)[C@@H](C(C)C)C(=O)OC[C@@H](NC(=O)c3cnc4ccccc4n3)C(=O)N[C@@H](C)C(=O)N(C)[C@@H](C[S+]1C)C(=O)N(C)[C@@H](C(C)C)C(=O)OC[C@@H](NC(=O)c1cnc3ccccc3n1)C(=O)N[C@@H](C)C(=O)N2C.[Cl-]` (some centres undefined) [listing 2 of 2 here], the MST with B16 [3] stood at 23 days; in the experiment on B16 [4], 24 days; with B16 [5], 26 days; with B16 [6] it was 25 days; with B16 [7], 28 days; with P388 [8], 31 days. The MST in the experiment with P388 [9] stood at 32 days; in the experiment on P388 [10], 33 days; in the experiment with P388 [11], 34 days; in the experiment on P388 [12], 35 days.
Turning to `CC(C)[C@H]1C(=O)OC[C@@H](NC(=O)c2cnc3ccccc3n2)C(=O)N[C@@H](C)C(=O)N(C)[C@H]2CSC([S+](C)[O-])[C@@H](C(=O)N1C)N(C)C(=O)[C@H](C)NC(=O)[C@H](NC(=O)c1cnc3ccccc3n1)COC(=O)[C@H](C(C)C)N(C)C2=O` (some centres undefined) [listing 1 of 2 here], the IC50 was determined as 310 ng/mL (≈ 277 nM) with B16 [1], 8.8 ng/mL (≈ 7.88 nM) with P388 [2] and 540 ng/mL (≈ 483 nM) in the experiment on SNU-16.
For the compound `CC(C)[C@H]1C(=O)OC[C@@H](NC(=O)c2cnc3ccccc3n2)C(=O)N[C@@H](C)C(=O)N(C)[C@H]2CSC([S+](C)[O-])[C@@H](C(=O)N1C)N(C)C(=O)[C@H](C)NC(=O)[C@H](NC(=O)c1cnc3ccccc3n1)COC(=O)[C@H](C(C)C)N(C)C2=O` (some centres undefined) [listing 2 of 2 here], the MST was 20 days with B16 [13] and 27 days in the experiment with P388 [14].
Consider `CC(C)[C@H]1C(=O)OC[C@@H](NC(=O)c2cnc3ccccc3n2)C(=O)N[C@@H](C)C(=O)N(C)[C@H]2C[S+]([O-])C([S+](C)[O-])[C@@H](C(=O)N1C)N(C)C(=O)[C@H](C)NC(=O)[C@H](NC(=O)c1cnc3ccccc3n1)COC(=O)[C@H](C(C)C)N(C)C2=O` (some centres undefined) [listing 1 of 2 here], for which the values for the IC50 in the experiment with B16 [1], in the experiment on P388 [2] and with SNU-16 were 1700 ng/mL (≈ 1500 nM), 98 ng/mL (≈ 86.5 nM) and 590 ng/mL (≈ 521 nM), respectively.
`CC(C)[C@H]1C(=O)OC[C@@H](NC(=O)c2cnc3ccccc3n2)C(=O)N[C@@H](C)C(=O)N(C)[C@H]2C[S+]([O-])C([S+](C)[O-])[C@@H](C(=O)N1C)N(C)C(=O)[C@H](C)NC(=O)[C@H](NC(=O)c1cnc3ccccc3n1)COC(=O)[C@H](C(C)C)N(C)C2=O` (some centres undefined) [listing 2 of 2 here]: the MST worked out at 17 days in the experiment with B16 [13] and 31 days with P388 [14].
Turning to `CC(C)[C@H]1C(=O)OC[C@@H](NC(=O)c2cnc3ccccc3n2)C(=O)N[C@@H](C)C(=O)N(C)[C@H]2CSC(S(C)(=O)=O)[C@@H](C(=O)N1C)N(C)C(=O)[C@H](C)NC(=O)[C@H](NC(=O)c1cnc3ccccc3n1)COC(=O)[C@H](C(C)C)N(C)C2=O` (some centres undefined) [listing 1 of 2 here], the IC50 in the experiment on B16 [1] is 820 ng/mL (≈ 724 nM); in the experiment on P388 [2], 60 ng/mL (≈ 52.9 nM); in the experiment on SNU-16, 1100 ng/mL (≈ 971 nM).
On to `CC(C)[C@H]1C(=O)OC[C@@H](NC(=O)c2cnc3ccccc3n2)C(=O)N[C@@H](C)C(=O)N(C)[C@H]2CSC(S(C)(=O)=O)[C@@H](C(=O)N1C)N(C)C(=O)[C@H](C)NC(=O)[C@H](NC(=O)c1cnc3ccccc3n1)COC(=O)[C@H](C(C)C)N(C)C2=O` (some centres undefined) [listing 2 of 2 here], for which the MST in the experiment on B16 [13] worked out at 17 days; in the experiment with P388 [14], 25 days.
Turning to `COc1cccc2c1C(=O)c1c(O)c3c(c(O)c1C2=O)C[C@@](O)(C(=O)CO)C[C@@H]3O[C@H]1C[C@H](N)[C@H](O)[C@H](C)O1` [DOXORUBICIN], the IC50 in the experiment on B16 [1] was 540 ng/mL (≈ 994 nM); in the experiment with P388 [2] it was 9.6 ng/mL (≈ 17.7 nM); in the experiment on SNU-16, 160 ng/mL (≈ 294 nM).
For the compound `CS[C@H]1SC[C@H]2C(=O)N(C)[C@@H](C(C)C)C(=O)OC[C@@H](NC(=O)c3cnc4ccccc4n3)C(=O)N[C@@H](C)C(=O)N(C)[C@@H]1C(=O)N(C)[C@@H](C(C)C)C(=O)OC[C@@H](NC(=O)c1cnc3ccccc3n1)C(=O)N[C@@H](C)C(=O)N2C` [ECHINOMYCIN], the IC50 with B16 [1] was found to be 6.5e-05 ng/mL (≈ 5.9e-05 nM); with P388 [2], 0.043 ng/mL (≈ 0.039 nM); with SNU-16, 0.00016 ng/mL (≈ 0.000145 nM). For the same compound, the MST in the experiment with B16 [3] came out at 23 days; with B16 [4], 24 days; in the experiment on B16 [13] it was 21 days; in the experiment with B16 [5], 23 days; with B16 [6] it was 25 days; in the experiment on P388 [8] it was 31 days. In addition, the MST in the experiment with P388 [9] turned out to be 32 days; in the experiment with P388 [15] it was 33 days; in the experiment on P388 [16], 26 days; in the experiment with P388 [14] it was 27 days.
